From patent US20240262842A1, “SMALL MOLECULE INHIBITORS OF KRAS G12C MUTANT” (Merck Sharp & Dohme LLC, priority 2021, published 2024) come the findings set out here.

Each structure is given as a SMILES string.

Sequence of biotinylated KRAS G12C protein (GMP-PNP loaded) and GST-tagged Ras binding domain of c-RAF (P01116 with tags, fused parts or gaps isoform P01116-2 G12C/C51S/C80L/C118S): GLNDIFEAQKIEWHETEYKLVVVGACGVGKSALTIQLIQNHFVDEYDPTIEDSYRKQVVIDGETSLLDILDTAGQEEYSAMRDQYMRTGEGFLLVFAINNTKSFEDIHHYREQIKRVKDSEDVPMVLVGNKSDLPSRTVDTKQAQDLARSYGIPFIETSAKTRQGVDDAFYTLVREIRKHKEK

The assay concerns the target biotinylated KRAS G12C protein (GMP-PNP loaded) and GST-tagged Ras binding domain of c-RAF (Homo sapiens, UniProt P01116, C118S/C51S/C80L/G12C). Description: RAS:RAF-RBD binding assay (TR-FRET). The note with it: 30-minute incubation of compound with KRAS G12C before RAF-RBD; Table 4; read-out: IC50.
In general, IC50 refers to the concentration needed to halve the response being measured. With `CO[C@H]1CCCC[C@H]1NC/C=C/C(=O)Nc1c(F)cc(C(=O)c2cc3c4c(cccn24)-c2c(C(F)(F)F)cc4c(nc(C)n4C)c2OCC3)cc1F` [Example 268, (E)-N-(4-(9,10-dimethyl-7-(trifluoromethyl)-13,14-dihydro-9H-imidazo-[4″,5″:5′,6′]benzo[1′,2′: 2,3]oxocino[4,5,6-hi]-indolizine-2-carbonyl)-2,6-difluorophenyl)-4-(((1R,2S)-2-methoxy-cyclohexyl)amino)but-2-enamide], the IC50 came out at 12.8 nM.
As for `Cc1nc2c3c(c(C(F)(F)F)cc2n1C)-c1cccn2c(C(=O)c4cc(F)c(NC(=O)/C=C/CN[C@@H]5CCCC(F)(F)[C@@H]5O)c(F)c4)cc(c12)CCO3` [Example 274], the IC50 is 20.4 nM.
`Cc1nc2c3c(c(C(F)(F)F)cc2n1C)-c1cccn2c(C(=O)c4cc(F)c(NC(=O)/C=C/CN5C[C@H](O)[C@@H](F)C5)c(F)c4)cc(c12)CCO3` [Example 275, (3S,4S)-1-((E)-4-((4-(9,10-dimethyl-7-(trifluorometh-yl)-13,14-dihydro-9H-imidazo[4″,5″:5′,6′]benzo-[1′,2′:2,3]oxocino[4,5,6-hi]indolizine-2-carbonyl)-2,6-difluorophenyl)amino)-4-oxobut-2-en-1-yl)-3-fluoro-4-hydroxypyrrol-idin-1-ium 2,2,2-trifluoro-acetate]: the half-maximal inhibitory concentration (IC50) was determined as 57.5 nM.
In the case of `Cc1nc2c3c(c(C(F)(F)F)cc2n1C)-c1cccn2c(C(=O)c4cc(F)c(NC(=O)/C=C/CNCC5(F)CC5)c(F)c4)cc(c12)CCO3` [Example 276, (E)-4-((4-(9,10-dimethyl-7-(trifluoromethyl)-13,14-dihydro-9H-imidazo-[4″,5″:5′,6′]benzo[1′,2′: 2,3]oxocino[4,5,6-hi]-indolizine-2-carbonyl)-2,6-difluorophenyl)-amino)-N-((1-fluorocyclo-propyl)methyl)-4-oxobut-2-en-1-aminium 2,2,2-trifluoroacetate], the IC50 was determined as 8.05 nM.
Next, `Cc1nc2c3c(c(C(F)(F)F)cc2n1C)-c1cccn2c(C(=O)c4cc(F)c(NC(=O)/C=C/CNC5CC(F)(F)C5)c(F)c4)cc(c12)CCO3` [Example 277, (E)-N-(4-((4-(9,10-dimethyl-7-(trifluoro-methyl)-13,14-dihydro-9H-imidazo[4″,5″:5′,6′]-benzo[1′,2′:2,3]oxocino-[4,5,6-hi]indolizine-2-carbonyl)-2,6-difluoro-phenyl)amino)-4-oxobut-2-en-1-yl)-3,3-difluoro-cyclobutan-1-aminium 2,2,2-trifluoroacetate]: 26.4 nM; `Cc1nc2c3c(c(C(F)(F)F)cc2n1C)-c1cccn2c(C(=O)c4cc(F)c(NC(=O)/C=C/CNCC5(CO)COC5)c(F)c4)cc(c12)CCO3` [Example 279, (E)-4-((4-(9,10-dimethyl-7-(trifluoromethyl)-13,14-dihydro-9H-imidazo-[4″,5″:5′,6′]benzo[1′,2′: 2,3]oxocino[4,5,6-hi]-indolizine-2-carbonyl)-2,6-difluorophenyl)amino)-N-((3-(hydroxymethyl)oxetan-3-yl)methyl)-4-oxobut-2-en-1-aminium 2,2,2-trifluoroacetate]: 5.73 nM.
Regarding `Cc1nc2c3c(c(C(F)(F)F)cc2n1C)-c1cccn2c(C(=O)c4cc(F)c(NC(=O)/C=C/CN5CC6(CCOCC6)C5)c(F)c4)cc(c12)CCO3` [Example 280, (E)-2-(4-((4-(9,10-dimeth-yl-7-(trifluoromethyl)-13,14-dihydro-9H-imidazo[4″,5″:5′,6′]benzo-[1′,2′:2,3]oxocino[4,5,6-hi]indolizine-2-carbonyl)-2,6-difluorophenyl)amino)-4-oxobut-2-en-1-yl)-7-oxa-2-azaspiro[3.5]nonan-2-ium 2,2,2-trifluoroacetate], the IC50 came to 37.7 nM.
For the molecule `Cc1nc2c3c(c(C(F)(F)F)cc2n1C)-c1cccn2c(C(=O)c4cc(F)c(NC(=O)/C=C/CNCC5(CO)CC5)c(F)c4)cc(c12)CCO3` [Example 281, (E)-4-((4-(9,10-dimethyl-7-(trifluoromethyl)-13,14-dihydro-9H-imidazo-[4″,5″:5′,6′]benzo[1′,2′: 2,3]oxocino[4,5,6-hi]-indolizine-2-carbonyl)-2,6-difluorophenyl)-amino)-N-((1-(hydroxy-methyl)cyclopropyl)meth-yl)-4-oxobut-2-en-1-aminium 2,2,2-trifluoro-acetate], the IC50 worked out at 3.8 nM.
In the case of `CN1CCc2cc(C(=O)c3cc(F)c(NC(=O)/C=C/CNC4(C)COC4)c(F)c3)n3cccc(c23)-c2c(C(F)(F)F)cc3c(cnn3C)c21` [Example 283, (E)-N-(4-(9,12-dimethyl-7-(trifluoromethyl)-9,12,13,14-tetrahydroindolizino[8′,1′:4,5,6]azocino[2,3-e]indazole-2-carbonyl)-2,6-difluorophenyl)-4-((3-methyloxetan-3-yl)amino)but-2-enamide], the IC50 was 64.7 nM.
Consider `Cc1nc2c3c(c(C(F)(F)F)cc2n1C)-c1cccn2c(C(=O)c4cc(F)c(NC(=O)/C=C/CN5CC(F)C5)c(F)c4)cc(c12)CCN3C` [Example 285, (E)-N-(2,6-difluoro-4-(9,10,12-trimethyl-7-(trifluoromethyl)-9,12,13,14-tetrahydroimidazo[4″,5″:5′,6′]benzo[1′,2′:2,3]azocino[4,5,6-hi]indolizine-2-carbonyl)phenyl)-4-(3-fluoroazetidin-1-yl)but-2-enamide], for which the IC50 is 85 nM.
In the case of `COCc1nc2c3c(c(OC)cc2n1C)-c1cccn2c(C(=O)c4cc(F)c(NC(=O)/C(F)=C/CNC5(C)CC5)c(F)c4)cc(c12)CCN3C` [Example 286, (Z)-N-(2,6-difluoro-4-(7-methoxy-10-(methoxymethyl)-9,12-dimethyl-9,12,13,14-tetrahydroimidazo[4″,5″:5′,6′]benzo[1′,2′:2,3]azocino[4,5,6-hi]indolizine-2-carbonyl)phenyl)-2-fluoro-4-((1-methylcyclopropyl)amino)but-2-enamide], the IC50 stood at 92.8 nM.
As to `COCc1nc2c3c(c(OC)cc2n1C)-c1cccn2c(C(=O)c4cc(F)c(NC(=O)/C=C/CNC(C)(C)C)c(F)c4)cc(c12)CCN3C` [Example 288, mono((E)-2-(4-(4-(tert-butylammonio)but-2-enamido)-3,5-difluoro-benzoyl)-7-methoxy-10-(methoxymethyl)-9,12-dimethyl-9,12,13,14-tetra-hydroimidazo[4″,5″:5′,6′]-benzo[1′,2′:2,3]azocino-[4,5,6-hi]indolizin-11-ium) mono-(2,2,2-trifluoroacetate)], the IC50 stood at 8.15 nM.
`COCc1nc2c3c(c(OC)cc2n1C)-c1cccn2c(C(=O)c4cc(F)c(NC(=O)/C=C/CN5CC[C@H](O)C5)c(F)c4)cc(c12)CCN3C` [Example 289, mono(2-(3,5-difluoro-4-((E)-4-((3S)-3-hydroxy-pyrrolidin-1-ium-1-yl)but-2-enamido)benzoyl)-7-methoxy-10-(methoxy-methyl)-9,12-dimethyl-9,12,13,14-tetrahydro-imidazo[4″,5″:5′,6′]benzo-[1′,2′:2,3]azocino[4,5,6-hi]indolizin-11-ium) mono(2,2,2-trifluoro-acetate)]: the IC50 was determined as 68.8 nM.
In the case of `COCc1nc2c3c(c(OC)cc2n1C)-c1cccn2c(C(=O)c4cc(F)c(NC(=O)/C=C/CNC(C)(C)C5CC5)c(F)c4)cc(c12)CCN3C` [Example 290, mono((E)-2-(4-(4-((2-cyclopropylpropan-2-yl)-ammonio)but-2-enamido)-3,5-difluorobenzoyl)-7-methoxy-10-(methoxy-methyl)-9,12-dimethyl-9,12,13,14-tetrahydro-imidazo[4″,5″:5′,6′]benzo-[1′,2′:2,3]azocino[4,5,6-hi]indolizin-11-ium) mono(2,2,2-trifluoro-acetate)] it was 11.1 nM; in that of `COCc1nc2c3c(c(OC)cc2n1C)-c1cccn2c(C(=O)c4cc(F)c(NC(=O)/C=C/CNC5CC6(COC6)C5)c(F)c4)cc(c12)CCN3C` [Example 291, (E)-4-((2-oxaspiro[3.3]-heptan-6-yl)amino)-N-(2,6-difluoro-4-(7-meth-oxy-10-(methoxymethyl)-9,12-dimethyl-9,12,13,14-tetrahydroimidazo[4″,5″: 5′,6′]benzo[1′,2′:2,3]-azocino[4,5,6-hi]indol-izine-2-carbonyl)phenyl) but-2-enamide], 5.55 nM.
Next, `Cc1nc2c3c(c(C(F)(F)F)cc2n1C)-c1cccn2c(C(=O)c4cc(F)c(NC(=O)C(F)=CCN5CCCC5CO)c(F)c4)cc(c12)CCO3` [Example 294, mono(2-(3,5-difluoro-4-((Z)-2-fluoro-4-(2S)-2-(hydroxymethyl)pyrrol-idin-1-ium-1-yl)but-2-enamido)benzoyl)-9,10-dimethyl-7-(trifluorometh-yl)-13,14-dihydro-9H-imidazo[4″,5″:5′,6′]benzo-[1′,2′:2,3]oxocino[4,5,6-hi]indolizin-11-ium) mono(2,2,2-trifluoro-acetate)]: 59.6 nM; `Cc1nc2c3c(c(C(F)(F)F)cc2n1C)-c1cccn2c(C(=O)c4cc(F)c(NC(=O)/C(F)=C/CNCC5(CO)CC5)c(F)c4)cc(c12)CCO3` [Example 295, mono((Z)-2-(3,5-difluoro-4-(2-fluoro-4-(((1-(hydroxymethyl)cyclo-propyl)methyl)ammonio)-but-2-enamido)benzoyl)-9,10-dimethyl-7-(trifluoro-methyl)-13,14-dihydro-9H-imidazo[4″,5″:5′,6′]-benzo[1′,2′:2,3]oxocino-[4,5,6-hi]indolizin-11-ium) mono(2,2,2-trifluoro-acetate)]: 25.3 nM.
On to `Cc1nc2c3c(c(C(F)(F)F)cc2n1C)-c1cccn2c(C(=O)c4cc(F)c(NC(=O)/C(F)=C/CNC5CC6(COC6)C5)c(F)c4)cc(c12)CCO3` [Example 297, (Z)-4-((2-oxaspiro[3.3]-heptan-6-yl)amino)-N-(4-(9,10-dimethyl-7-(trifluoromethyl)-13,14-dihydro-9H-imidazo-[4″,5″:5′,6′]benzo[1′,2′: 2,3]oxocino[4,5,6-hi]-indolizine-2-carbonyl)-2,6-difluorophenyl)-2-fluorobut-2-enamide], for which the IC50 turned out to be 26.7 nM.
